Assay results reported in patent US8394442B2, “Process for the preparation of a flavoring concentrate, and a flavoring concentrate” (SYMRISE AG, priority 2007, dated 2013).
Read-outs that look alike come from different tables or passages of the source.

Legend:
[1] = log Pow* calculated by Formula 2 from log Pow and the polarity parameter P′(x) of the ethanol/water mixture
[2] = log Pow: distribution coefficient between 1-octanol and water; settings: 1-octanol/water
[3] = solvent ethanol, proportion 10%
[4] = solvent ethanol, proportion 30%
[5] = solvent ethanol, proportion 40%
[6] = solvent ethanol, proportion 50%
[7] = solvent ethanol, proportion 60%
[8] = solvent ethanol, proportion 70%
[9] = solvent ethanol, proportion 80%
[10] = solvent ethanol, proportion 90%
[11] = solvent ethanol, proportion 100%

Row | log Pow* (P′ 4%) [1] | log Pow* (P′ 6%) [1] | log Pow* (P′ 8%) [1] | log Pow* (P′ 10%) [1] | log Pow* (P′ 30%) [1] | log Pow* (P′ 40%) [1] | log Pow [2] | Compound | log Pow* (P′ 2%) ([1]; solvent ethanol, proportion 2%) | log Pow* (P′ 4%) ([1]; solvent ethanol, proportion 4%) | log Pow* (P′ 6%) ([1]; solvent ethanol, proportion 6%) | log Pow* (P′ 8%) ([1]; solvent ethanol, proportion 8%) | log Pow* (P′ 10%) [1, 3] | log Pow* (P′ 30%) [1, 4] | log Pow* (P′ 40%) [1, 5] | log Pow* (P′ 50%) [1, 6] | log Pow* (P′ 60%) [1, 7] | log Pow* (P′ 70%) [1, 8] | log Pow* (P′ 80%) [1, 9] | log Pow* (P′ 90%) [1, 10] | log Pow* (P′ 100%) [1, 11] | also measured
1 | 2.32 | 2.25 | 2.18 | 2.12 | 1.61 | 1.42 | – | C=Cc1ccc(O)c(OC)c1 | – | – | – | – | – | – | – | – | – | – | – | – | – | log Pow* (P′ 2%) [1]: 2.40; log Pow* (P′ 50%) [1]: 1.26; log Pow* (P′ 60%) [1]: 1.13; log Pow* (P′ 70%) [1]: 1.01; log Pow* (P′ 80%) [1]: 0.91; log Pow* (P′ 90%) [1]: 0.82; log Pow* (P′ 100%) [1]: 0.75
2 | 0.98 | 0.84 | 0.71 | 0.58 | −0.41 | −0.78 | 1.28 | CC(C)CCO [3-mebutanol, 3-methylbutanol] | – | – | – | – | – | – | – | – | – | – | – | – | – | log Pow* (P′ 2%) [1]: 1.12; log Pow* (P′ 50%) [1]: −1.08; log Pow* (P′ 60%) [1]: −1.34; log Pow* (P′ 70%) [1]: −1.57; log Pow* (P′ 80%) [1]: −1.76; log Pow* (P′ 90%) [1]: −1.93; log Pow* (P′ 100%) [1]: −2.08
3 | – | – | – | – | – | – | – | O=Cc1ccccc1 [Benzaldehyde] | 1.52 | 1.40 | 1.30 | 1.19 | 1.09 | 0.32 | 0.03 | −0.20 | −0.41 | −0.58 | −0.73 | −0.86 | −0.98 | –
4 | 3.05 | 2.99 | 2.94 | 2.89 | 2.49 | 2.34 | 3.17 | CC(C)=CCCC(C)=CC=O [Citral] | – | – | – | – | – | – | – | – | – | – | – | – | – | log Pow* (P′ 2%) [1]: 3.11; log Pow* (P′ 50%) [1]: 2.22; log Pow* (P′ 60%) [1]: 2.11; log Pow* (P′ 70%) [1]: 2.02; log Pow* (P′ 80%) [1]: 1.94; log Pow* (P′ 90%) [1]: 1.87; log Pow* (P′ 100%) [1]: 1.81
5 | – | – | – | – | – | – | −1.33 | CC(=O)C(C)=O [Diacetyl] | −1.48 | −1.62 | −1.76 | −1.88 | −2.00 | −2.96 | −3.31 | −3.60 | −3.85 | −4.07 | −4.25 | −4.42 | −4.56 | –
6 | 3.80 | 3.76 | 3.71 | 3.67 | 3.34 | 3.22 | 3.90 | CCCSSCCC [Dipropyldisulfide] | – | – | – | – | – | – | – | – | – | – | – | – | – | log Pow* (P′ 2%) [1]: 3.85; log Pow* (P′ 50%) [1]: 3.12; log Pow* (P′ 60%) [1]: 3.04; log Pow* (P′ 70%) [1]: 2.97; log Pow* (P′ 80%) [1]: 2.90; log Pow* (P′ 90%) [1]: 2.85; log Pow* (P′ 100%) [1]: 2.80
7 | 1.55 | 1.45 | 1.35 | 1.26 | 0.55 | 0.28 | 1.77 | CCCC(=O)OCC [Ethylbutyrate] | – | – | – | – | – | – | – | – | – | – | – | – | – | log Pow* (P′ 2%) [1]: 1.66; log Pow* (P′ 50%) [1]: 0.06; log Pow* (P′ 60%) [1]: −0.13; log Pow* (P′ 70%) [1]: −0.29; log Pow* (P′ 80%) [1]: −0.43; log Pow* (P′ 90%) [1]: −0.55; log Pow* (P′ 100%) [1]: −0.66
8 | – | – | – | – | – | – | 2.38 | CCOC(=O)C(C)CC (centres unmarked) [Ethylmethylbutyrate-2] | 2.30 | 2.22 | 2.14 | 2.07 | 2.00 | 1.47 | 1.27 | 1.11 | 0.97 | 0.85 | 0.75 | 0.65 | 0.57 | –
9 | – | – | – | – | – | – | – | O=Cc1ccco1 [Furfural] | 0.46 | 0.20 | −0.04 | −0.28 | −0.50 | −2.24 | −2.88 | −3.41 | −3.87 | −4.26 | −4.60 | −4.90 | −5.16 | –
10 | – | – | – | – | – | – | – | OCc1ccco1 [Furfuryl alcohol] | −0.43 | −1.10 | −1.74 | −2.35 | −2.92 | −7.46 | −9.13 | −10.52 | −11.71 | −12.73 | −13.61 | −14.39 | −15.08 | –
11 | 1.77 | 1.68 | 1.60 | 1.51 | 0.87 | 0.63 | – | CCCCCC=O [Hexanal] | – | – | – | – | – | – | – | – | – | – | – | – | – | log Pow* (P′ 50%) [1]: 0.43; log Pow* (P′ 60%) [1]: 0.27; log Pow* (P′ 70%) [1]: 0.12; log Pow* (P′ 80%) [1]: 0.00; log Pow* (P′ 90%) [1]: −0.12; log Pow* (P′ 100%) [1]: −0.21
12 | 2.69 | 2.63 | 2.57 | 2.51 | 2.06 | 1.90 | – | CCCCCCOC(C)=O [Hexylacetate] | – | – | – | – | – | – | – | – | – | – | – | – | – | log Pow* (P′ 2%) [1]: 2.76; log Pow* (P′ 50%) [1]: 1.76; log Pow* (P′ 60%) [1]: 1.64; log Pow* (P′ 70%) [1]: 1.54; log Pow* (P′ 80%) [1]: 1.46; log Pow* (P′ 90%) [1]: 1.38; log Pow* (P′ 100%) [1]: 1.31
13 | – | – | – | – | – | – | 2.47 | CC/C=C\CC1CCCC(=O)O1 (centres unmarked) [Jasmine lactone] | 2.39 | 2.31 | 2.24 | 2.17 | 2.11 | 1.59 | 1.40 | 1.25 | 1.11 | 1.00 | 0.90 | 0.81 | 0.73 | –
14 | – | – | – | – | – | – | – | Oc1ccccc1 [Phenol] | 1.35 | 1.22 | 1.10 | 0.98 | 0.87 | 0.02 | −0.30 | −0.56 | −0.79 | −0.98 | −1.15 | −1.30 | −1.43 | –

Row | Compound | log Pow* (P′ 4%) [1] | log Pow* (P′ 6%) [1] | log Pow* (P′ 8%) [1] | log Pow* (P′ 10%) [1] | log Pow* (P′ 30%) [1] | log Pow* (P′ 40%) [1] | log Pow [2] | log Pow* (P′ 2%) ([1]; solvent ethanol, proportion 2%) | log Pow* (P′ 4%) ([1]; solvent ethanol, proportion 4%) | log Pow* (P′ 6%) ([1]; solvent ethanol, proportion 6%) | log Pow* (P′ 8%) ([1]; solvent ethanol, proportion 8%) | log Pow* (P′ 10%) [1, 3] | log Pow* (P′ 30%) [1, 4] | log Pow* (P′ 40%) [1, 5] | log Pow* (P′ 50%) [1, 6] | log Pow* (P′ 60%) [1, 7] | log Pow* (P′ 70%) [1, 8] | log Pow* (P′ 80%) [1, 9] | log Pow* (P′ 90%) [1, 10] | log Pow* (P′ 100%) [1, 11] | also measured
15 | CCC(C)CO (centres unmarked) [2-mebutanol, 2-methylbutanol] | – | – | – | – | – | – | 1.29 | 1.14 | 0.99 | 0.85 | 0.72 | 0.59 | −0.39 | −0.75 | −1.05 | −1.31 | −1.53 | −1.73 | −1.89 | −2.04 | –
16 | CCC/C=C/C=O [2E-hexenal] | – | – | – | – | – | – | 1.61 | 1.49 | 1.37 | 1.26 | 1.15 | 1.05 | 0.26 | −0.03 | −0.27 | −0.47 | −0.65 | −0.81 | −0.94 | −1.06 | –
17 | CCC/C=C/CO [2E-hexenol] | – | – | – | – | – | – | 1.75 | 1.64 | 1.53 | 1.43 | 1.33 | 1.24 | 0.51 | 0.24 | 0.02 | −0.17 | −0.33 | −0.47 | −0.60 | −0.71 | –
18 | CCCCOC(C)=O [Butylacetate] | – | – | – | – | – | – | 1.77 | 1.66 | 1.55 | 1.45 | 1.35 | 1.26 | 0.55 | 0.28 | 0.06 | −0.13 | −0.29 | −0.43 | −0.55 | −0.66 | –
19 | SCc1ccco1 [Furfurylthiol-2] | – | – | – | – | – | – | 1.90 | 1.80 | 1.70 | 1.60 | 1.51 | 1.43 | 0.76 | 0.51 | 0.31 | 0.13 | −0.02 | −0.15 | −0.26 | −0.36 | –
20 | c1ccc2[nH]ccc2c1 [Indole] | – | – | – | – | – | – | 2.14 | 2.05 | 1.96 | 1.88 | 1.80 | 1.72 | 1.13 | 0.91 | 0.73 | 0.57 | 0.44 | 0.32 | 0.22 | 0.13 | –
